2 molecules from patent US6562830B1, “Method of treating a patient having precancerous lesions with phenyl quinazolinone derivatives” (Cell Pathways, Inc., priority 1999, dated 2003) can be followed below.

The melting point is the temperature, or range, at which the solid turns liquid. Regarding `CCCOc1ccccc1-c1nc2cc(NC)ccc2c(=O)[nH]1` [Example 27, 7-Methylamino-2-(2-Propoxyphenyl)-4(3H)-quinazolinone], the melting point fell in the range of 204 to 205 °C.

`CCCOc1ccccc1-c1nc2cc(N)ccc2c(=O)[nH]1` [Example 26, 7-Amino-2-(2-Propoxyphenyl)-4(3H)-quinazolinone]: the melting point came to 185 °C.
